Measurements reported in paper PMC12508057, “Discovery of ETI41 and ETI60: novel selective endosomal Toll-like receptor inhibitors for the treatment of autoimmune diseases” (Experimental & Molecular Medicine, 2025).

Legend:
[1] = test system: TLR7- and TLR9-dependent downstream signaling; assay: Western blot of TLR7- and TLR9-dependent downstream signaling in RAW 264.7; type: cell-based, mouse; details: RAW 264.7, 5 or 10 μM
Method: RAW 264.7 cells were seeded into 60-mm dishes at 1 × 10^6 cells per dish. After 30 min of treatment with ETI41 or ETI60, the cells were stimulated with 2 μM IMQ (a TLR7 agonist) or 1 μM ODN2395 (a TLR9 agonist). Lysates were prepared using a Mammalian Protein Extraction Kit (Thermo Fisher Scientific) with protease and phosphatase inhibitors. Nuclear proteins were extracted using an NE-PER Nuclear and Cytoplasmic Extraction Kit (Thermo Fisher Scientific). Proteins were quantified using a bicinchoninic acid kit (Sigma-Aldrich), separated by SDS–PAGE and transferred onto nitrocellulose membranes (GE Healthcare). Membranes were incubated with specific primary antibodies and horseradish peroxidase-conjugated secondary antibodies. […] Protein bands were detected using a chemiluminescent substrate (SuperSignal West Pico PLUS; Thermo Fisher Scientific) and visualized using a Fuji LAS-3000 system (Fujifilm).
Fig. 2 ETI41 and ETI60 inhibit TLR7- and TLR9-dependent downstream signaling. a, b Western blot analysis was used to quantify the protein levels of phosphorylated p-ERK, p-JNK, p38, Iκ-Bα and p65. […] Statistical differences between the induced and other cases were analyzed and verified using a one-tailed Student’s t-test (*P < 0.05, **P < 0.01, ***P < 0.001). e–g The TLR7 agonist IMQ (1 μM) was used in 3’ RNA-seq analysis to induce signaling associated with immune responses in RAW 264.7 cells. […]

[2] = test system: Daudi cells; assay: Water-soluble tetrazolium assay, cell viability in Daudi; type: cell-based
Method: Daudi cells were seeded into 96-well plates at a density of 5 × 10^4 cells per well.
One-tailed paired Student’s t-tests were performed using Microsoft Excel (Microsoft). […] The therapeutic index was calculated as […]. Animal experimental results are expressed as mean ± standard deviation and analyzed using SPSS v.20 (IBM SPSS Statistics). Homogeneity of variance was assessed using Levene’s test.
Data are from at least three independent experiments (n = 3) and statistical differences between the induced case and other cases were analyzed and verified using a one-tailed Student’s t-test (*P < 0.05, **P < 0.01, ***P < 0.001).

[3] = target: T1, mTLR3 (Mus musculus, UniProt Q99MB1); assay: TLR3 inhibition, poly I:C-induced mTNFα in RAW 264.7; type: cell-based
T1 construct: reduction in TNF-α secretion in mouse RAW 264.7 cells; endogenous in cells; host or cells: RAW 264.7
Method: RAW 264.7 and differentiated THP-1 cells were seeded into 96-well plates at 2 × 10^4 cells per well, while Daudi cells were seeded at 5 × 10^4 cells per well. After stabilization for 30 min, cells were stimulated with specific TLR agonists for 4 or 24 h. Supernatants were diluted and transferred to precoated ELISA plates to measure TNF-α secretion using kits from Invitrogen. Optical absorbance was measured using a BioTek Synergy HTX multimode microplate reader, and data were interpolated using BioTek Gen5 software.
One-tailed paired Student’s t-tests were performed using Microsoft Excel (Microsoft). Semi-logarithmic conversions and nonregression curve analyses for calculating 50% lethal concentration (LC50) and 50% inhibitory concentration (IC50) values were conducted using GraphPad Prism 7.0 (GraphPad). The therapeutic index was calculated as […]. Animal experimental results are expressed as mean ± standard deviation and analyzed using SPSS v.20 (IBM SPSS Statistics). Homogeneity of variance was assessed using Levene’s test. […]

T1 sequence (Q99MB1 26-905): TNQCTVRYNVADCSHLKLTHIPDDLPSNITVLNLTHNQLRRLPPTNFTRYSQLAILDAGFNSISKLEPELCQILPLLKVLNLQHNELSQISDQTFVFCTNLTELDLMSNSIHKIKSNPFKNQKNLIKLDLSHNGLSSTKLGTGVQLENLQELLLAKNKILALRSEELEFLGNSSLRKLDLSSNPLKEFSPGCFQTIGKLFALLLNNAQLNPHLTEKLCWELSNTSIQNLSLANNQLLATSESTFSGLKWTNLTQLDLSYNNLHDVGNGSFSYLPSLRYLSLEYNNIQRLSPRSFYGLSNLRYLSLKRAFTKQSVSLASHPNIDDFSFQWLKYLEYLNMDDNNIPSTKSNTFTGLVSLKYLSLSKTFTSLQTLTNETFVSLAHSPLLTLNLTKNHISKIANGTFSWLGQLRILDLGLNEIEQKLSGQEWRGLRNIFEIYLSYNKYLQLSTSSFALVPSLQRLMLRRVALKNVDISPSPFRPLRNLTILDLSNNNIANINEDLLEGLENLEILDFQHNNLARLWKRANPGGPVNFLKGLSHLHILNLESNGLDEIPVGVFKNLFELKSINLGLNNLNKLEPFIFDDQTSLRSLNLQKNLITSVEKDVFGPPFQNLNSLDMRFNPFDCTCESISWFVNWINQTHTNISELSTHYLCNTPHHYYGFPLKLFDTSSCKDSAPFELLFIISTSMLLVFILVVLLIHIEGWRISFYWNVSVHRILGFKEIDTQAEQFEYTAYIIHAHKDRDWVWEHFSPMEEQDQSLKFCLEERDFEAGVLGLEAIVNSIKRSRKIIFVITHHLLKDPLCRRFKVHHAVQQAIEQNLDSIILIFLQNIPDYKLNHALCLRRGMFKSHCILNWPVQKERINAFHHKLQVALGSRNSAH

Cc1cc2c(N)c3c(nc2n1CCCN(C)C)CCCCCC3 [ETI41]
IMQ- or ODN2395-induced phosphorylation of MAPKs (p-ERK, p-JNK, p-p38), nuclear translocation of NF-κB p65, Iκ-Bα degradation and IRF7 expression [1]: inhibited
Cell viability (LD50), cytotoxicity [2]: >200,000 nM
IC50 [3]: 993 nM

COc1ccc2c3c(N)c4c(nc3n(CCCN(C)C)c2c1)CCCC4 [ETI60]
IMQ- or ODN2395-induced phosphorylation of MAPKs (p-ERK, p-JNK, p-p38), nuclear translocation of NF-κB p65, Iκ-Bα degradation and IRF7 expression [1]: inhibited
Cell viability (LD50), cytotoxicity [2]: 38,410 nM
IC50 [3]: 372 nM
